Values after ≈ are worked out from the molar mass of the structure shown.
Legend:
Autotaxin (ATX) = target: T1, Autotaxin (ATX) (Homo sapiens, UniProt Q13822); experiment: biochemical choline detection assay for ATX inhibition, LysoPC substrate; conditions: for IC50: mean standard deviation from duplicate experiments
T1 construct: we added 10 μL of recombinant ATX (2 ng/mL) in a Tris–HCl buffer
Experimental: All 21 new benzoxaboroles derivatives prepared herein were evaluated for ATX inhibition in vitro using a biochemical choline detection assay, combining elements of assays already described in the literature.
[…] Mother plates with serial dilutions of compounds in pure DMSO were prepared from 10 mM DMSO stock solutions. Storplate-384-deep-well-V plates (Perkin Elmer) were also used for mother plate preparation. Compounds were diluted in a DMSO in a ratio of 1:3. An aliquot of 200 nL of compound solution was transferred from the mother plate to the test plate with a Mosquito nanoliter liquid handling system (TTP labtech). The assay was performed in Spectra-Plate-384 TC, transparent, (Perkin Elmer, Cat#6007658) using a 20 µL assay volume. The total final percentage of DMSO in the test media was 1%. Compounds were tested at 11 consecutive three-fold dilutions starting from 50 µM (final concentrations) in duplicate, covering range of 0.0008–50 μM to determine IC50 values. […] After dispensing of compounds directly to the dry plate, we added 10 μL of recombinant ATX (2 ng/mL) in a Tris–HCl buffer (140 mM NaCl, 1mM MgCl2, 5 mM KCl, 3 mM CaCl2, 1 mg/ml bovin serum albumin (BSA, fatty acid free) and 100 mM Tris–HCl, pH 9). […] The above-described solution with dimethyl sulfoxide but without the test compound was used as a control. LysoPC without ATX was used as a control for the autohydrolysis of LysoPC. After 1.5 h of incubation, 20 μL of stop solution and developer was added {Choline oxidase (1.2 U/mL), Peroxidase (1.2 U/mL), TOOS (2.7 mM), 4-Aminoantipyrine (2.7 mM), and EDTA (50 mM)} to the reaction mixture, and absorbance was measured after 30 min of incubation. The absorbance was measured by using Perkin-Elmer EnVision plate reader (λ = 555 nm). Data were analyzed using GraphPad Prism software. The calculation of IC50 data, curves and quality control (QC) analysis was made by using Excel tools and GraphPadPrism software. Briefly, individual concentration–effect curves were generated by plotting the logarithm of the tested concentration of tested compounds (X) vs. corresponding percentage inhibition values (Y) using a least squares (ordinary) fit. […] QC criteria parameters (Z,’ S:B, ΔmP) were checked for every plate.

[1] = Chrom logD determination by gradient HPLC (CHI); type: physicochemical; conditions: pH 7.4, Luna C18 column; for chromatographic logD: reversed-phase HPLC, Phenomenex Luna C18 column
Experimental: clogP values were calculated for all compounds using the Percepta software. Chrom logD was determined experimentally using a procedure described in the supplementary data. Furthermore, the correlation between calculated clogP values and experimentally determined Chrom log D values were explored for molecules containing boron functional groups such as boronic acids and benzoxaboroles.
Chrom logD values were determined from the following equation: Chrom logD = 0.0857 × CHI − 2 [39]. Chromatographic hydrophobic index (CHI) values were determined from the gradient retention times (RT). These values approximately corresponded to the volume percentage of organic component in the mobile phase when the compound elutes. CHI values were determined at pH 7.4. Chromatograms were obtained using on Agilent 1100 Series liquid chromatography system with an HPLC diode-array detector (DAD) coupled with a Micromass Quattro micro atmosphere pressure ionization (API) mass spectrometer. The column used for analyses was Phenomenex Luna C18 (50 × 3 mm, 5 µm, 100 Å). The column was maintained at 25 °C. The flow rate was 1.0 mL/min. The mobile phase was composed of 50 mM ammonium acetate in water at pH 7.4 (solvent A) and acetonitrile (solvent B). The solvent gradient condition was initially 0.5% B, and then it increased linearly to 100% B over 3.0 min, remaining at 100% B for 0.5 min, then decreasing linearly to 0% B over 0.2 min followed by an equilibration period of 1.3 min prior to the next injection. The total experimental duration was 5 min. Injection volume was 2.0 µl. Samples temperature was maintained at 15 °C in the autosampler chamber. A group of ten standard compounds having different CHI values was used for calibration of RP-HPLC [40].

[2] = in vitro plasma stability, rat plasma; type: in vitro ADME; conditions: after 4 h
Experimental: (§1) The in vitro plasma stability of the test compounds was studied in human and rat plasma with propranolol, benflorex, and eucatropine as control substances. All compounds at final concentrations of 5 μM (0.5% DMSO) were incubated in a phosphate buffer (50 mM, pH 7.4) for 4 h at 37 °C together with plasma. Aliquots were taken at different time points (0, 30, 120 min and 4 h), followed by reaction termination by the addition of CH3CN:CH3OH 2:1 v/v., which contained diclofenac and warfarin as internal standards (IS). Samples were then centrifuged (at 1600 rpm at 4 °C for 30 min), and the resulting supernatants were subjected to LC/MS/MS analysis. Results are expressed as % remaining.

[3] = in vitro plasma stability, human plasma; type: in vitro ADME; conditions: after 4 h
Experimental: as §1

[4] = kinetic solubility, turbidimetric method; type: physicochemical; conditions: 37 °C, pH 7.4, aqueous buffer, kinetic from dmso stock, Solubility (kinetic solubility range)
Experimental: Turbidimetric solubility allows for a rapid determination of kinetic solubility by using small amounts of the test compound. Assay controls were α-naphtoflavone (low solubility) and sulfaphenazole (expected solubility >100µM). DMSO stock solutions (10 mM) of each compound were first serially diluted 1 in 3 in DMSO and then spiked into an aqueous buffer (100 mM PBS), resulting in 5 following final concentration: 100, 30, 10, 3 and 1 µM (each concentration was tested in duplicate). […] Compound samples were compared to a solvent control in an aqueous buffer (DMSO 1% final concentration), and a significant increase of sample absorbance was considered to have occurred when the absorbance reached a 3-fold standard deviation of the average DMSO absorbance. The calculation of solubility range data was made by Excel tool software. Results are expressed as an estimated solubility range.

[5] = metabolic stability in human liver microsomes; type: in vitro ADME
Experimental: (§2) Metabolic stability was assessed in rat and human liver microsomes, with testosterone and propranolol as positive controls. All compounds, at a final concentration of 1 μM (0.03% DMSO), were incubated in a phosphate buffer (50 mM, pH 7.4) for 60 min at 37 °C, together with liver microsomes in the absence and presence of NADPH generating system (nicotinamide adenine dinucleotide phosphate (NADP, 2 mM), glucose-6-phosphate (20 mM), glucose-6-phosphate dehydrogenase (6U) and magnesium chloride (2 mM)). Aliquots were taken at different time points (0, 10, 20, 30, 45 and 60 min), followed by reaction termination by addition of CH3CN:CH3OH 2:1 v/v, containing diclofenac as internal standard (IS). Samples were then centrifuged (at 2000 rpm at 4 °C for 30 min), and resulting supernatants were subjected to LC/MS/MS analysis. The in vitro half-life was calculated in GraphPadPrism software from % remaining vs. time regression using non-linear regression fit. In vitro intrinsic clearance, expressed as mL/min/g liver, was determined from in vitro half-life and normalized for the protein concentration in the incubation mixture, assuming a 52.5 mg/g liver.

[6] = metabolic stability in rat liver microsomes; type: in vitro ADME
Experimental: as §2

[7] = choline release assay using as a substrate
[8] = choline release assay using LPC C16:0 as a substrate

IC50 (Autotaxin (ATX); [7]) [µM] | chromatographic logD [1] | Structure (SMILES) | also measured
0.37 ± 0.35 | 4.38 | O=C(OCc1cc(Cl)cc(Cl)c1)N1CCN(C2CCN(C(=O)c3ccc4c(c3)COB4O)C2)CC1 (centres unmarked) [Compound 32, (3,5-dichlorophenyl)methyl 4-[1-(1-hydroxy-3H-2,1-benzoxaborole-5-carbonyl)pyrrolidin-3-yl]piperazine-1-carboxylate] | ATX inhibition, range of activity (Autotaxin (ATX); in words): nanomolar range
– | – | O=C(OCc1cc(Cl)cc(Cl)c1)N1CCN(C2CCN(C(=O)c3cccc4c3COB4O)C2)CC1 (centres unmarked) [Compound 33] | IC50 (Autotaxin (ATX); [8]): 8 ± 2.58 µM; Chrom logD [1]: 5.40
2 ± 1.73 | 4.46 | O=C(OCc1cc(Cl)cc(Cl)c1)N1CCN(C2CN(C(=O)c3ccc4c(c3)COB4O)C2)CC1 [Compound 38, (3,5-dichlorophenyl)methyl 4-[1-(1-hydroxy-3H-2,1-benzoxaborole-5-carbonyl)azetidin-3-yl]piperazine-1-carboxylate] | PS (plasma stability), rat [2]: 60.1 %remaining; PS (plasma stability), human [3]: 79.1 %remaining; solubility kinetic at 1 h [4]: 30 to 100 µM (≈ 15.1 to 50.4 µg/mL); LMS: predicted in vivo hepatic clearance, human [5]: 79 %LBF; LMS: predicted in vivo hepatic clearance, rat [6]: 82 %LBF
> 50 | 3.05 | O=C(OCc1ccccc1)N1CCN(C2CCN(C(=O)c3ccc4c(c3)B(O)OC4)C2)CC1 (centres unmarked) [Compound 39, benzyl 4-[1-(1-hydroxy-3H-2,1-benzoxaborole-6-carbonyl)pyrrolidin-3-yl]piperazine-1-carboxylate] | –
> 50 | 2.9 | O=C(OCc1ccccc1)N1CCN(C2CCN(C(=O)c3ccc4c(c3)COB4O)C2)CC1 (centres unmarked) [Compound 40, benzyl 4-[1-(1-hydroxy-3H-2,1-benzoxaborole-5-carbonyl)pyrrolidin-3-yl]piperazine-1-carboxylate] | –
23 ± 1.18 | 3.07 | O=C(OCc1ccccc1)N1CCN(C2CN(C(=O)c3ccc4c(c3)B(O)OC4)C2)CC1 [Compound 41, benzyl 4-[1-(1-hydroxy-3H-2,1-benzoxaborole-6-carbonyl)azetidin-3-yl]piperazine-1-carboxylate] | –
> 50 | 2.9 | O=C(OCc1ccccc1)N1CCN(C2CN(C(=O)c3ccc4c(c3)COB4O)C2)CC1 [Compound 42, benzyl 4-[1-(1-hydroxy-3H-2,1-benzoxaborole-5-carbonyl)azetidin-3-yl]piperazine-1-carboxylate] | –
4.7 ± 1.14 | 3.99 | Cc1cc(C)cc(COC(=O)N2CCN(C3CCN(C(=O)c4ccc5c(c4)COB5O)C3)CC2)c1 (centres unmarked) [Compound 44, (3,5-dimethylphenyl)methyl 4-[1-(1-hydroxy-3H-2,1-benzoxaborole-5-carbonyl)pyrrolidin-3-yl]piperazine-1-carboxylate] | –
5.1 ± 2.75 | 4.01 | Cc1cc(C)cc(COC(=O)N2CCN(C3CN(C(=O)c4ccc5c(c4)COB5O)C3)CC2)c1 [Compound 46, (3,5-dimethylphenyl)methyl 4-[1-(1-hydroxy-3H-2,1-benzoxaborole-5-carbonyl)azetidin-3-yl]piperazine-1-carboxylate] | –
14 ± 5.5 | 3.19 | COc1cc(COC(=O)N2CCN(C3CCN(C(=O)c4ccc5c(c4)B(O)OC5)C3)CC2)cc(OC)c1 (centres unmarked) [Compound 47, (3,5-dimethoxyphenyl)methyl 4-[1-(1-hydroxy-3H-2,1-benzoxaborole-6-carbonyl)pyrrolidin-3-yl]piperazine-1-carboxylate] | –
15 ± 6.07 | 3.03 | COc1cc(COC(=O)N2CCN(C3CCN(C(=O)c4ccc5c(c4)COB5O)C3)CC2)cc(OC)c1 (centres unmarked) [Compound 48, (3,5-dimethoxyphenyl)methyl 4-[1-(1-hydroxy-3H-2,1-benzoxaborole-5-carbonyl)pyrrolidin-3-yl]piperazine-1-carboxylate] | –
11 ± 4.59 | 3.21 | COc1cc(COC(=O)N2CCN(C3CN(C(=O)c4ccc5c(c4)B(O)OC5)C3)CC2)cc(OC)c1 [Compound 49, (3,5-dimethoxyphenyl)methyl 4-[1-(1-hydroxy-3H-2,1-benzoxaborole-6-carbonyl)azetidin-3-yl]piperazine-1-carboxylate] | –
– | – | COc1cc(COC(=O)N2CCN(C3CN(C(=O)c4ccc5c(c4)COB5O)C3)CC2)cc(OC)c1 [Compound 50] | IC50 (Autotaxin (ATX); [8]): 13 ± 3.26 µM; Chrom logD [1]: 3.07

From article PMC6804080, “Benzoxaboroles—Novel Autotaxin Inhibitors” (Molecules, 2019)
